We go through 46 compounds from ChEMBL document CHEMBL3301464, “MMV Malaria Box anti-babesial screening”.

The nature of assay [1]: (§1) MMV: Anti-babesial activity assay. Parasite pRBCs at 1% parasitemia were cultivated in 100 ul with 96-well plates at 2.5% and 5% hematocrits. The parasites were cultivated in triplicate for 4 days without replacement of the medium for each concentration of the compound. In kind it is functional, Babesia caballi.
Assay [2] can be described thus: as §1. In kind it is functional, Babesia bigemina.
A short description of assay [3]: as §1. In kind it is functional, Babesia equi.
The nature of assay [4]: as §1. Format: functional, Babesia bovis.

Some results are limits rather than exact numbers.

With `CCOc1cc(Cl)c(C(C)NC(=O)c2cccc(OC)c2)cc1OCC` (centres undefined), the IC50 in assay [1] is 18.7 µM; in assay [2] it was 7.3 µM; in assay [3], 2.45 µM; in assay [4], 25 µM.
`O=C(NC1CCCC1)c1ccc(N2CCC(NCc3cccc(C(F)(F)F)c3)CC2)cc1`: the IC50 in assay [1] is 13.4 µM; in assay [2] it was 25 µM; in assay [3], 10 µM; in assay [4], 14 µM.
Take `O=C(Nc1nc(-c2ccccn2)cs1)c1ccccc1Br`: the IC50 came out at 1 µM in assay [1], 1 µM in assay [2], 5.5 µM in assay [3] and 4.6 µM in assay [4].
For `CCCCC(O)(c1ccc(Cl)cc1)C(CN1CCOCC1)c1ccc(Cl)cc1` (centres undefined), the IC50 is 0.55 µM in assay [1], 0.1 µM in assay [2], 13.2 µM in assay [3] and 11.9 µM in assay [4].
The corresponding values for `Cc1ccc(Cn2c(N3CCC(C(=O)NCc4cccs4)CC3)nc3ccccc32)cc1` are above 25 µM, 10 µM, 12.9 µM and 17.7 µM.
Turning to `COc1ccc(CCNC(=O)c2cc(S(=O)(=O)N3CC(C)CC(C)C3)ccc2Sc2ccc(F)cc2)cc1OC` (centres undefined), the IC50 in assay [1] was 0.13 µM; in assay [2], 0.086 µM; in assay [3] it was 12.7 µM; in assay [4], 1 µM.
The corresponding values for `Oc1ccc2ccccc2c1CNc1nc2ccccc2[nH]1` are 3.04 µM, 10 µM, 4.37 µM and 6.81 µM.
In the same order, the values of `CCCCCn1c(=N)n(CC(O)COc2cccc(C)c2)c2ccccc21` (centres undefined) are 5.9 µM, 0.1 µM, 4.52 µM and 0.08 µM.
In the same order, the values of `CCN(CC)c1cc(C)c2cc(NC(=O)c3cccc(OC)c3)ccc2n1` are 9.33 µM, 8.99 µM, 0.46 µM and 10 µM.
As for `CN(N=O)C1=C(NC2CCCCC2)C(=O)c2ccccc2C1=O`, the IC50 in assay [1] amounted to 0.41 µM; in assay [2], 4.13 µM; in assay [3] it was 0.76 µM; in assay [4], 0.59 µM.
`Fc1ccc2[nH]c3c(NCCCN4CCOCC4)ncnc3c2c1`: the IC50 was found to be 14.7 µM in assay [1], 17.1 µM in assay [2], 2.88 µM in assay [3] and 19.7 µM in assay [4].
With `O=C(NCCCN1CCC(N2CCCCC2)CC1)C1=Cc2cc(Br)ccc2OC1`, the IC50 amounted to 4.13 µM in assay [1], 0.08 µM in assay [2], 5.09 µM in assay [3] and 1 µM in assay [4].
On to `CCOC(=O)C1=CN(C)C=C(C(=O)OCC)C1c1cc(Br)c(OCC)c(OC)c1`, for which the IC50 in assay [1] came to 2.63 µM; in assay [2] it was 0.1 µM; in assay [3] it was 14.1 µM; in assay [4], 0.091 µM.
Turning to `Cc1ccc(-c2cc3c(SCC(=O)Nc4cc(C(F)(F)F)ccc4Cl)nccn3n2)cc1`, the IC50 is 13.5 µM in assay [1], 16.6 µM in assay [2], 5.89 µM in assay [3] and 21.6 µM in assay [4].
For `OC(CNCc1ccccc1)Cn1c2ccccc2c2ccccc21` (centres undefined), the IC50 in assay [1] is 3.9 µM; in assay [2], 18 µM; in assay [3], 4.19 µM; in assay [4] it was 3.25 µM.
In the case of `COc1ccc2nc(N)nc(C)c2c1`, the IC50 came to 4.19 µM in assay [1], 15.6 µM in assay [2], 3.03 µM in assay [3] and 7.23 µM in assay [4].
`c1ccc(/C2=N/c3ccccc3/N=C(/c3ccccc3)c3ccccc32)cc1`: the IC50 in assay [1] turned out to be 4.91 µM; in assay [2], 10 µM; in assay [3], 15.2 µM; in assay [4], 17.7 µM.
The corresponding values for `CCOc1cc(CNC(C)C(O)c2ccccc2)cc(Cl)c1OCC` (centres undefined) are 7.96 µM, 0.91 µM, 5.64 µM and 0.081 µM.
Consider `CCOC(=O)C1(Cc2ccccc2)CCN(Cc2cccc(OC)c2O)CC1`, for which the IC50 in assay [1] was 1.39 µM; in assay [2] it was 13.2 µM; in assay [3], 15.2 µM; in assay [4], 1.2 µM.
Turning to `C=CCc1c(C)nc2ccccc2c1O`, the IC50 in assay [1] was found to be 11.4 µM; in assay [2], 3.57 µM; in assay [3], 3.61 µM; in assay [4], 6.09 µM.
As to `Oc1ccc(-c2nc(-c3ccc4oc5ccc(-c6[nH]c(-c7ccc(O)cc7)nc6-c6ccccc6)cc5c4c3)c(-c3ccccc3)[nH]2)cc1`, the IC50 in assay [1] was 10 µM; in assay [2], 1.39 µM; in assay [3], 0.1 µM; in assay [4], 0.059 µM.
Regarding `CCCCCCc1cc2cc(-c3csc(C=Cc4ccccc4)n3)c(=O)oc2cc1O`, the IC50 in assay [1] was determined as 10 µM; in assay [2], 25 µM; in assay [3], 6.86 µM; in assay [4], 5.92 µM.
Consider `CC(NCc1ccccc1)c1cc(Cl)ccc1O` (centres undefined), for which the IC50 in assay [1] amounted to 16.6 µM; in assay [2], 12 µM; in assay [3] it was 8.25 µM; in assay [4] it was 3.81 µM.
Consider `CCOc1ccc(-c2nc(NC(=O)c3cccc(S(C)(=O)=O)c3)sc2C)cc1`, for which the IC50 is 11.9 µM in assay [1], 15 µM in assay [2], 17.7 µM in assay [3] and 4.48 µM in assay [4].
In the same order, the values of `Cc1cccc(N2C(=O)C3C(C2=O)C2(c4ccccc4)C(=O)C3(c3ccccc3)C(c3ccc4c(c3)OCO4)=C2c2ccc3c(c2)OCO3)c1` (centres undefined) are 5.5 µM, 25 µM, 13.9 µM and 17 µM.
Take `O=C(Nc1ccc(N2CCCCC2)c(Cl)c1)c1ccc(Br)o1`: the IC50 in assay [1] is 13.9 µM; in assay [2], 17.7 µM; in assay [3], 18.7 µM; in assay [4] it was 11.9 µM.
As for `Oc1c2c(nc3cc(-c4ccccc4)nn13)CCCC2`, the IC50 in assay [1] was 1.29 µM; in assay [2], above 25 µM; in assay [3], 0.44 µM; in assay [4] it was 5.5 µM.
In the case of `COc1ccc(CNC(=O)c2cc3c(=O)n4ccccc4nc3n(CCc3ccccc3)c2=N)cc1`, the IC50 was determined as 0.686 µM in assay [1], 4.27 µM in assay [2], 4.74 µM in assay [3] and 0.1 µM in assay [4].
As to `CCOC(=O)c1cnc2ccc(OC)cc2c1NCc1ccccc1`, the IC50 stood at 5.9 µM in assay [1], 1 µM in assay [2], 14.1 µM in assay [3] and 0.72 µM in assay [4].
In the same order, the values of `CCCCc1c(C)nc2c(OC)cccc2c1O` are 5.64 µM, 15.3 µM, 14 µM and 10 µM.
Regarding `CC1(c2ccccc2)Nc2ccccc2-c2nc3ccccc3n21` (centres undefined), the IC50 in assay [1] amounted to 0.08 µM; in assay [2], 10 µM; in assay [3], 1 µM; in assay [4], 13.8 µM.
On to `CCCCCCC(O)(c1ccc(F)cc1)C(CN1CCOCC1)c1ccccc1` (centres undefined), for which the IC50 in assay [1] turned out to be 0.29 µM; in assay [2] it was 9.87 µM; in assay [3] it was 10 µM; in assay [4] it was 2.63 µM.
For the compound `CCCc1c(C)nc2ccc(Br)cc2c1O`, the IC50 was found to be 0.1 µM in assay [1], 11.9 µM in assay [2], 13.3 µM in assay [3] and 16.5 µM in assay [4].
In the case of `O=C(Nc1cccc(-c2nc3ccccc3[nH]2)c1)c1cccc(NC(=O)c2ccco2)c1`, the IC50 was determined as 5.21 µM in assay [1], 6.8 µM in assay [2], 3.7 µM in assay [3] and 3.32 µM in assay [4].
Turning to `CCN(CC)S(=O)(=O)c1ccc(-c2csc(Nc3ccc(C)c(C)c3)n2)cc1`, the IC50 turned out to be 0.08 µM in assay [1], 10 µM in assay [2], 14.2 µM in assay [3] and 11.9 µM in assay [4].
For `O=C(NCC1Cc2cccc(-c3ccncc3)c2O1)c1csc2c1CCCC2` (centres undefined), the IC50 was determined as 15.3 µM in assay [1], 1 µM in assay [2], 3.7 µM in assay [3] and 7.18 µM in assay [4].
Take `CCOc1cccc2sc(N(Cc3cccnc3)C(=O)C3CCCCC3)nc12`: the IC50 in assay [1] was 0.076 µM; in assay [2], 21.6 µM; in assay [3] it was 4.77 µM; in assay [4], 25 µM.
As for `C=C(C)CCC(C)N1CCC(N2CCC(C(=O)NCCc3ccccc3)CC2)CC1` (centres undefined), the IC50 in assay [1] was 12.9 µM; in assay [2], 2.4 µM; in assay [3], 4.89 µM; in assay [4], 4.37 µM.
As for `CCN(CC)CCCNc1nc(-c2ccc(Cl)cc2)nc2ccccc12`, the IC50 was determined as 5.93 µM in assay [1], 2.16 µM in assay [2], 0.25 µM in assay [3] and 0.73 µM in assay [4].
With `O=C(Nc1ccc(CN2CCOCC2)cc1)c1ccc(-c2cc(Cl)ccc2Cl)o1`, the IC50 was 0.069 µM in assay [1], 10 µM in assay [2], 10 µM in assay [3] and 25 µM in assay [4].
On to `CCOc1cc2c(cc1OCC)C(c1cc(Cl)ccc1O)NCC2` (centres undefined), for which the IC50 in assay [1] was 0.33 µM; in assay [2] it was 10 µM; in assay [3], 1.4 µM; in assay [4], 1.06 µM.
For the compound `CN(C)c1ccc(N2C(N)=NC(N)=NC2(C)C)cc1`, the IC50 was found to be 5.06 µM in assay [1], 12.9 µM in assay [2], 10.1 µM in assay [3] and 1 µM in assay [4].
In the case of `COc1ccc(NC(=O)C2c3ccccc3C(=O)N(CC(C)C)C2c2cccs2)cc1Cl` (centres undefined), the IC50 came out at 4.69 µM in assay [1], 2.52 µM in assay [2], 6.87 µM in assay [3] and 3.15 µM in assay [4].
In the case of `FC(F)(F)c1cccc(Nc2nc3ccccc3nc2Nc2cccc(C(F)(F)F)c2)c1`, the IC50 in assay [1] was determined as 4.27 µM; in assay [2] it was 3.45 µM; in assay [3] it was 4.13 µM; in assay [4], 0.14 µM.
Consider `CN1CCN(c2ncnc3c2[nH]c2ccc(Cl)cc23)CC1`, for which the IC50 in assay [1] is 6.4 µM; in assay [2], 8.54 µM; in assay [3], 8.25 µM; in assay [4], 10 µM.
The corresponding values for `O=C(NCC(c1ccsc1)N1CCCCCC1)c1ccc(C(F)(F)F)cc1` (centres undefined) are 10 µM, 13.6 µM, 18.1 µM and 18.2 µM.

The term IC50 denotes the point on the concentration scale where inhibition reaches its midpoint. A higher IC50 goes with weaker potency in that assay.
